Data published in ChEMBL document CHEMBL5614413, “Design, synthesis and biological evaluation of amphiphilic benzopyran derivatives as potent antibacterial agents against multidrug-resistant bacteria” (Eur J Med Chem, 2024).
Values after ≈ are worked out from the molar mass of the structure shown.

How the values were obtained:
[1] = Selectivity index, ratio of HC50 for hemolytic activity in sheep RBC to MIC for antibacterial activity against methicillin-resistant Staphylococcus aureus ATCC 43300; format: toxicity; settings: sheep red blood cells (erythrocytes), read-out: Selectivity Index
Acinetobacter baumannii = assay: Antibacterial activity against Acinetobacter baumannii ATCC 19606; format: functional
Bacillus subtilis = assay: Antibacterial activity against penicillin-susceptible Bacillus subtilis ATCC 9372; format: functional
Klebsiella pneumoniae = assay: Antibacterial activity against Klebsiella pneumoniae ATCC 10031; format: functional
Pseudomonas aeruginosa = assay: Antibacterial activity against penicillin-susceptible Pseudomonas aeruginosa ATCC 27853; format: functional
[2] = test system: Staphylococcus epidermidis; assay: Antibacterial activity erythromycin-susceptible Staphylococcus epidermidis ATCC 12228; format: functional
Staphylococcus aureus [3] = assay: Antibacterial activity against penicillin-resistant Staphylococcus aureus ATCC 31007; format: functional
Staphylococcus aureus [4] = assay: Antibacterial activity against methicillin-resistant Staphylococcus aureus ATCC 43300; format: functional
Staphylococcus aureus [5] = assay: Antibacterial activity against erythromycin-susceptible Staphylococcus aureus ATCC 25923; format: functional
Escherichia coli = assay: Antibacterial activity against penicillin-susceptible Escherichia coli ATCC 25922; format: functional
[6] = Hemolytic activity in sheep RBC; format: toxicity, cell-based, Ovis aries, Erythrocyte; settings: sheep red blood cells (erythrocytes)
Enterococcus faecalis = assay: Antibacterial activity against vancomycin-susceptible Enterococcus faecalis ATCC 29212; format: functional

Molecule | selectivity ratio [1] | MIC (Acinetobacter baumannii) [µg/mL] | MIC (Bacillus subtilis) [µg/mL] | MIC (Klebsiella pneumoniae) [µg/mL] | MIC (Pseudomonas aeruginosa) [µg/mL] | MIC [2] [µg/mL] | MIC (Staphylococcus aureus [3]) [µg/mL] | MIC (Staphylococcus aureus [4]) [µg/mL] | MIC (Staphylococcus aureus [5]) [µg/mL] | MIC (Escherichia coli) [µg/mL] | HC50 [6] [µg/mL] | MIC (Enterococcus faecalis) [µg/mL]
CC(=O)c1ccc2c(c1OCCCN1CCOCC1)C=CC(C)(CCC=C(C)C)O2 (configuration not stated) | < 4.4 | 128 (≈ 310 µM) | 128 (≈ 310 µM) | > 128 | > 128 | > 128 | > 128 | > 128 | > 128 | > 128 | 560 | > 128
CC(=O)c1ccc2c(c1OCCCN(C)C)C=CC(C)(CCC=C(C)C)O2 (configuration not stated) | 11.9 | 16 (≈ 43.1 µM) | 16 (≈ 43.1 µM) | 8 (≈ 21.5 µM) | 64 (≈ 172 µM) | 8 (≈ 21.5 µM) | 16 (≈ 43.1 µM) | 16 (≈ 43.1 µM) | 16 (≈ 43.1 µM) | 32 (≈ 86.1 µM) | 194 | 16 (≈ 43.1 µM)
CCCCN(CCCC)CCCNC(=O)COc1c(C(C)=O)ccc2c1C=CC(C)(CCC=C(C)C)O2 (configuration not stated) | 33.8 | 128 (≈ 250 µM) | 4 (≈ 7.8 µM) | 128 (≈ 250 µM) | > 128 | 32 (≈ 62.4 µM) | 16 (≈ 31.2 µM) | 8 (≈ 15.6 µM) | 16 (≈ 31.2 µM) | > 128 | 270 | 32 (≈ 62.4 µM)
COLISTIN | – | 1 | 16 | 1 | 0.5 | 64 | 128 | 128 | 128 | 0.5 | – | 128
CC(=O)c1ccc2c(c1OCC(=O)N(CCCN)CCCN)C=CC(C)(CCC=C(C)C)O2.Cl.Cl (configuration not stated) | 13 | > 128 | 32 | > 128 | > 128 | 128 | > 128 | 128 | > 128 | > 128 | 1670 | > 128
CCCCN(CCCC)CCCNCCCOc1c2c(c3c(c1C(C)=O)OC(C)(CCC=C(C)C)C=C3)OC(C)(CCC=C(C)C)C=C2 (configuration not stated) | 9.2 | 4 (≈ 6.03 µM) | 4 (≈ 6.03 µM) | 8 (≈ 12.1 µM) | 128 (≈ 193 µM) | 1 (≈ 1.51 µM) | 2 (≈ 3.02 µM) | 4 (≈ 6.03 µM) | 1 (≈ 1.51 µM) | 8 (≈ 12.1 µM) | 36.7 | 1 (≈ 1.51 µM)
CC(=O)c1c(OCCCN(C)C)c2c(c3c1OC(C)(CCC=C(C)C)C=C3)OC(C)(CCC=C(C)C)C=C2 (configuration not stated) | 16 | > 128 | 2 (≈ 3.83 µM) | > 128 | > 128 | 1 (≈ 1.92 µM) | 2 (≈ 3.83 µM) | 4 (≈ 7.67 µM) | 2 (≈ 3.83 µM) | > 128 | 64 | 1 (≈ 1.92 µM)
COc1c(C(=O)/C=C/c2ccc(OCCCN(C)CCCN(C)C)cc2)ccc2c1C=CC(C)(CCC=C(C)C)O2 (configuration not stated) | 29.8 | 8 (≈ 14.3 µM) | 4 (≈ 7.13 µM) | 4 (≈ 7.13 µM) | > 128 | 1 (≈ 1.78 µM) | 4 (≈ 7.13 µM) | 4 (≈ 7.13 µM) | 4 (≈ 7.13 µM) | 2 (≈ 3.57 µM) | 119 | 2 (≈ 3.57 µM)
CC(=O)c1c(OCCCNCCCN2CCCC2)c2c(c3c1OC(C)(CCC=C(C)C)C=C3)OC(C)(CCC=C(C)C)C=C2 (configuration not stated) | 4.9 | 16 (≈ 26.5 µM) | 8 (≈ 13.2 µM) | 8 (≈ 13.2 µM) | 128 (≈ 212 µM) | 4 (≈ 6.61 µM) | 4 (≈ 6.61 µM) | 4 (≈ 6.61 µM) | 4 (≈ 6.61 µM) | 16 (≈ 26.5 µM) | 19.7 | 4 (≈ 6.61 µM)
COc1c(C(=O)/C=C/c2ccc(OCCCN)cc2)ccc2c1C=CC(C)(CCC=C(C)C)O2 (configuration not stated) | 13.8 | 16 (≈ 34.7 µM) | 8 (≈ 17.3 µM) | 16 (≈ 34.7 µM) | 16 (≈ 34.7 µM) | 8 (≈ 17.3 µM) | 16 (≈ 34.7 µM) | 8 (≈ 17.3 µM) | 8 (≈ 17.3 µM) | 8 (≈ 17.3 µM) | 111 | 16 (≈ 34.7 µM)
CC(=O)c1c(OCCCNCCCN2CCOCC2)c2c(c3c1OC(C)(CCC=C(C)C)C=C3)OC(C)(CCC=C(C)C)C=C2 (configuration not stated) | 4.5 | 128 (≈ 206 µM) | 4 (≈ 6.44 µM) | 128 (≈ 206 µM) | > 128 | 4 (≈ 6.44 µM) | 4 (≈ 6.44 µM) | 4 (≈ 6.44 µM) | 4 (≈ 6.44 µM) | > 128 | 18.1 | 8 (≈ 12.9 µM)
CNCCCOc1c(C(C)=O)ccc2c1C=CC(C)(CCC=C(C)C)O2 (configuration not stated) | – | 8 (≈ 22.4 µM) | 8 (≈ 22.4 µM) | 16 (≈ 44.8 µM) | 64 (≈ 179 µM) | 4 (≈ 11.2 µM) | 8 (≈ 22.4 µM) | 16 (≈ 44.8 µM) | 8 (≈ 22.4 µM) | 16 (≈ 44.8 µM) | 90.1 | 4 (≈ 11.2 µM)
CC(=O)c1ccc2c(c1OCCCN1CCCC1)C=CC(C)(CCC=C(C)C)O2 (configuration not stated) | – | 32 (≈ 80.5 µM) | 16 (≈ 40.2 µM) | 8 (≈ 20.1 µM) | > 128 | 8 (≈ 20.1 µM) | 16 (≈ 40.2 µM) | 16 (≈ 40.2 µM) | 32 (≈ 80.5 µM) | > 128 | 366 | 16 (≈ 40.2 µM)
